Laboratory results from DBAASP.
Converted amounts (≈) assume the structure as drawn.

Experiments:
Test in all cases: ≥ marks a high value that may be exact or a test limit, other limits are often not marked, values filed in µg/mL are converted to µM
[1] = tested on: Escherichia coli BL21
[2] = tested on: Streptococcus pyogenes M1T1 5448
[3] = tested on: Pseudomonas aeruginosa PAO1
[4] = tested on: Enterococcus faecalis ATCC 29212
[5] = tested on: Pseudomonas aeruginosa LES400
[6] = tested on: Escherichia coli ESBL 63103
[7] = tested on: Enterococcus faecium t62764
[8] = tested on: Pseudomonas aeruginosa 198
[9] = tested on: Enterococcus faecium mic80
[10] = tested on: Enterococcus faecalis W61950
[11] = tested on: Staphylococcus aureus C623
[12] = tested on: Enterococcus faecalis f43559
[13] = tested on: Pseudomonas aeruginosa H1027
[14] = tested on: Stenotrophomonas maltophilia ATCC 13637
[15] = tested on: Escherichia coli ESBL 64771
[16] = tested on: Staphylococcus aureus ATCC 25923
[17] = tested on: Enterobacter cloacae 218R
[18] = tested on: Pseudomonas aeruginosa 9
[19] = tested on: Klebsiella pneumoniae ESBL 63575
[20] = tested on: Pseudomonas aeruginosa PAO1 H103
[21] = tested on: Pseudomonas aeruginosa 213
[22] = tested on: Klebsiella pneumoniae ESBL 61962
[23] = tested on: Pseudomonas aeruginosa H1030
[24] = tested on: Staphylococcus aureus USA 300
[25] = tested on: Escherichia coli 55B5
[26] = tested on: Pseudomonas aeruginosa
[27] = tested on: Escherichia coli UB1005
[28] = tested on: Salmonella typhimurium
[29] = tested on: Staphylococcus aureus ATCC 43300
[30] = tested on: Salmonella enterica subsp. enterica serovar Enteritidis
[31] = tested on: Staphylococcus aureus ATCC 29213
[32] = tested on: Salmonella sp.
[33] = tested on: Escherichia coli ATCC 25922
[34] = tested on: Yersinia enterocolitica
[35] = tested on: Pseudomonas aeruginosa ATCC 27853
[36] = tested on: Escherichia coli
[37] = tested on: Cryptococcus neoformans ATCC 32264
[38] = tested on: Candida albicans ATCC 10231
[39] = tested on: Pseudomonas aeruginosa H744
[40] = tested on: Pseudomonas aeruginosa K799
[41] = tested on: Salmonella enterica subsp. enterica serovar Typhimurium ATCC 14028s
[42] = tested on: Pseudomonas aeruginosa Z61
[43] = tested on: Pseudomonas aeruginosa H547

**Q.** With `CC[C@H](C)[C@H](NC(=O)[C@H](CCCN=C(N)N)NC(=O)CNC(=O)[C@@H](NC(=O)[C@H](CCCCN)NC(=O)[C@H](CCCN=C(N)N)NC(=O)[C@@H](NC(=O)[C@H](Cc1ccc(O)cc1)NC(=O)[C@H](CCCN=C(N)N)NC(=O)[C@H](CCCN=C(N)N)NC(=O)[C@H](CC(C)C)NC(=O)[C@H](CCC(=O)O)NC(=O)[C@H](CCCCN)NC(=O)[C@H](C)NC(=O)[C@@H](NC(=O)[C@H](CCCN=C(N)N)NC(=O)[C@H](CC(N)=O)NC(=O)[C@@H](NC(=O)CNC(=O)[C@H](C)N)[C@@H](C)O)[C@@H](C)CC)[C@@H](C)CC)C(C)C)C(=O)N[C@@H](C)C(=O)N[C@@H](CCCN=C(N)N)C(=O)N[C@@H](CCCCN)C(=O)N[C@@H](CCCCN)C(=O)N[C@@H](Cc1c[nH]c2ccccc12)C(=O)O` [AGTNRIAKELRRYIRKVGRIARKKW] as the molecule, how does the MIC [1] read?
**A.** 1 µM (≈ 3.04 µg/mL)

**Q.** What about the MIC [2] of the same molecule?
**A.** 1 µM (≈ 3.04 µg/mL)

**Q.** And the MIC [3]?
**A.** 16 µM (≈ 48.7 µg/mL)

**Q.** `CC(C)C[C@H](NC(=O)[C@H](Cc1c[nH]c2ccccc12)NC(=O)[C@H](Cc1c[nH]c2ccccc12)NC(=O)[C@H](CCCCN)NC(=O)[C@H](Cc1c[nH]c2ccccc12)NC(=O)[C@H](CCCN=C(N)N)NC(=O)[C@H](CCCN=C(N)N)NC(=O)[C@H](Cc1c[nH]c2ccccc12)NC(=O)[C@@H](N)CCCN=C(N)N)C(=O)O` [RWRRWKWWL] was tested. Which MIC [4] did it give?
**A.** 10.9 µM (≈ 16 µg/mL)

**Q.** What about the MIC [5] of the same molecule?
**A.** 2.65 µM (≈ 3.9 µg/mL)

**Q.** And the MIC [6]?
**A.** 2.65 µM (≈ 3.9 µg/mL)

**Q.** And the MIC [7]?
**A.** 0.611 µM (≈ 0.9 µg/mL)

**Q.** And the MIC [8]?
**A.** 5.5 µM (≈ 8.1 µg/mL)

**Q.** And the MIC [9]?
**A.** 2.65 µM (≈ 3.9 µg/mL)

**Q.** And the MIC [10]?
**A.** ≥ 42.1 µM

**Q.** What about the MIC [11] of the same molecule?
**A.** 1.36 µM (≈ 2 µg/mL)

**Q.** And the MIC [12]?
**A.** ≥ 42.1 µM

**Q.** What about the MIC [13] of the same molecule?
**A.** 0.136 µM (≈ 0.2 µg/mL)

**Q.** And the MIC [14]?
**A.** 0.34 µM (≈ 0.5 µg/mL)

**Q.** And the MIC [15]?
**A.** 1.36 µM (≈ 2 µg/mL)

**Q.** And the MIC [16]?
**A.** 1.36 µM (≈ 2 µg/mL)

**Q.** What about the MIC [17] of the same molecule?
**A.** 2.65 µM (≈ 3.9 µg/mL)

**Q.** What about the MIC [18] of the same molecule?
**A.** 5.5 µM (≈ 8.1 µg/mL)

**Q.** And the MIC [19]?
**A.** 5.02 µM (≈ 7.4 µg/mL)

**Q.** What about the MIC [20] of the same molecule?
**A.** 1.36 µM (≈ 2 µg/mL)

**Q.** And the MIC [21]?
**A.** 10.9 µM (≈ 16 µg/mL)

**Q.** And the MIC [22]?
**A.** 21 µM (≈ 31 µg/mL)

**Q.** What about the MIC [23] of the same molecule?
**A.** 5.5 µM (≈ 8.1 µg/mL)

**Q.** Which results are given for `CC[C@H](C)[C@H](NC(=O)[C@H](Cc1ccccc1)NC(=O)[C@H](C)NC(=O)[C@H](CCCCN)NC(=O)[C@H](CCCCN)NC(=O)CNC(=O)[C@H](CCCN=C(N)N)NC(=O)[C@H](CCCCN)NC(=O)[C@H](CCCN=C(N)N)NC(=O)[C@H](CC(C)C)NC(=O)[C@H](CCC(=O)O)NC(=O)[C@H](CCC(=O)O)NC(=O)[C@H](CC(C)C)NC(=O)[C@H](CC(C)C)NC(=O)[C@H](Cc1ccc(O)cc1)NC(=O)[C@H](CCCCN)NC(=O)[C@@H](NC(=O)[C@H](CC(C)C)NC(=O)[C@H](C)NC(=O)[C@H](CCC(N)=O)NC(=O)[C@H](CCCN=C(N)N)NC(=O)CNC(=O)[C@@H](N)Cc1c[nH]c2ccccc12)[C@@H](C)O)C(=O)N[C@@H](C)C(=O)N[C@@H](Cc1c[nH]c2ccccc12)C(=O)O` [WGRQALTKYLLEELRKRGKKAFIAW]?
**A.** MIC [1]: 16 µM (≈ 49 µg/mL); MIC [2]: 2 µM (≈ 6.13 µg/mL); MIC [3]: 64 µM (≈ 196 µg/mL); MIC [24]: ≥ 128 µM

**Q.** `CC[C@H](C)[C@H](NC(=O)[C@H](C)N)C(=O)N[C@@H](Cc1cnc[nH]1)C(=O)N[C@@H](CCCCN)C(=O)N[C@@H](CC(C)C)C(=O)N[C@@H](C)C(=O)N[C@@H](Cc1cnc[nH]1)C(=O)N[C@@H](CCCCN)C(=O)N[C@@H](CC(C)C)C(=O)N[C@H](C(=O)N[C@@H](CCCCN)C(=O)N[C@@H](CCCCN)C(=O)N[C@H](C(=O)N[C@@H](CC(C)C)C(=O)N[C@@H](CCCN=C(N)N)C(=O)N[C@@H](C)C(=O)N[C@H](C(=O)N[C@@H](CCCCN)C(=O)N[C@@H](CCCCN)C(=O)N[C@@H](CC(C)C)C(=O)N[C@@H](C)C(=O)N[C@@H](CC(N)=O)C(=O)O)C(C)C)[C@@H](C)O)[C@@H](C)O` [AIHKLAHKLTKKTLRAVKKLAN] was tested. Which MIC [25] did it give?
**A.** 10.5 µM (≈ 26.1 µg/mL)

**Q.** What about the MIC [26] of the same molecule?
**A.** 12.5 µM (≈ 31 µg/mL)

**Q.** And the MIC [27]?
**A.** 12.5 µM (≈ 31 µg/mL)

**Q.** What about the MIC [28] of the same molecule?
**A.** 10.5 µM (≈ 26.1 µg/mL)

**Q.** What does the source list for `CC[C@H](C)[C@H](NC(=O)[C@H](CCC(N)=O)NC(=O)[C@@H](N)CCCN=C(N)N)C(=O)N[C@@H](CCCN=C(N)N)C(=O)N[C@@H](Cc1c[nH]c2ccccc12)C(N)=O` [RQIRW]?
**A.** MIC [29]: > 50 µM; MIC [30]: ≥ 50 µM; MIC [31]: > 50 µM; MIC [32]: ≥ 50 µM; MIC [33]: > 50 µM; MIC [34]: ≥ 50 µM; MIC [35]: > 50 µM; MIC [36]: > 50 µM

**Q.** With `N=C(N)NCCC[C@H](NC(=O)[C@H](CCCNC(=N)N)NC(=O)[C@H](Cc1c[nH]c2ccccc12)NC(=O)[C@H](Cc1c[nH]c2ccccc12)NC(=O)[C@H](Cc1c[nH]c2ccccc12)NC(=O)[C@H](Cc1c[nH]c2ccccc12)NC(=O)[C@H](Cc1c[nH]c2ccccc12)NC(=O)[C@H](CCCCN)NC(=O)[C@H](Cc1c[nH]c2ccccc12)NC(=O)[C@H](Cc1c[nH]c2ccccc12)NC(=O)[C@@H](N)CCCNC(=N)N)C(=O)N[C@@H](Cc1c[nH]c2ccccc12)C(=O)N[C@@H](CCCCN)C(=O)N[C@@H](Cc1c[nH]c2ccccc12)C(=O)N[C@@H](CCCCN)C(=O)N[C@@H](CCCCN)C(N)=O` [RWWKWWWWWRRWKWKK] as the molecule, how does the MIC [29] read?
**A.** > 50 µM

**Q.** What about the MIC [30] of the same molecule?
**A.** 25 µM (≈ 66.9 µg/mL)

**Q.** And the MIC [31]?
**A.** > 50 µM

**Q.** And the MIC [37]?
**A.** ≥ 200 µM

**Q.** And the MIC [38]?
**A.** 100 µM (≈ 267 µg/mL)

**Q.** And the MIC [32]?
**A.** ≥ 50 µM

**Q.** And the MIC [33]?
**A.** > 50 µM

**Q.** And the MIC [34]?
**A.** ≥ 50 µM

**Q.** What about the MIC [35] of the same molecule?
**A.** > 50 µM

**Q.** What about the MIC [36] of the same molecule?
**A.** > 50 µM

**Q.** Which MIC [39] does the source give for `CC(C)C[C@H](NC(=O)[C@H](C)NC(=O)[C@H](CC(N)=O)NC(=O)[C@@H]1CCCN1C(=O)CNC(=O)[C@H](CO)NC(=O)[C@H](CC(N)=O)NC(=O)[C@@H](NC(=O)[C@H](C)NC(=O)[C@H](CCCCN)NC(=O)[C@H](CCC(N)=O)NC(=O)[C@H](C)NC(=O)[C@H](CCCCN)NC(=O)[C@H](Cc1c[nH]c2ccccc12)NC(=O)[C@H](Cc1c[nH]c2ccccc12)NC(=O)[C@H](CCCCN)NC(=O)[C@@H](N)CCCCN)C(C)C)C(=O)N[C@@H](CCC(N)=O)C(=O)N[C@H](C(=O)N[C@@H](CC(C)C)C(=O)N[C@@H](C)C(=O)N[C@@H](CCC(N)=O)C(=O)O)[C@@H](C)O` [KKWWKAQKAVNSGPNALQTLAQ] here?
**A.** 25.9 µM (≈ 64 µg/mL)

**Q.** And the MIC [40]?
**A.** 25.9 µM (≈ 64 µg/mL)

**Q.** What about the MIC [27] of the same molecule?
**A.** 25.9 µM (≈ 64 µg/mL)

**Q.** What about the MIC [41] of the same molecule?
**A.** 25.9 µM (≈ 64 µg/mL)

**Q.** And the MIC [42]?
**A.** 25.9 µM (≈ 64 µg/mL)

**Q.** And the MIC [43]?
**A.** 25.9 µM (≈ 64 µg/mL)
